Source: ChEMBL document CHEMBL1201862, “PubChem BioAssay data set” (2004)
Activity calls are given as the source filed them.

Tests used:
[1] = biological target: DNA repair and recombination protein RAD54-like (Homo sapiens, UniProt Q92698); assay: inhibitors of human RAD54 branch migration, confirmation, biochemical, fluorescence, cherry-picked samples, dose series (AID 651657); type: functional
[2] = biological target: T1, Neuropeptides B/W receptor type 1 (Homo sapiens, UniProt P48145); assay: GPR7 antagonist potency, late-stage follow-up, cell-based, fluorescence, dose response, set 5 (AID 588566); type: functional
T1 sequence (P48145 whole entry): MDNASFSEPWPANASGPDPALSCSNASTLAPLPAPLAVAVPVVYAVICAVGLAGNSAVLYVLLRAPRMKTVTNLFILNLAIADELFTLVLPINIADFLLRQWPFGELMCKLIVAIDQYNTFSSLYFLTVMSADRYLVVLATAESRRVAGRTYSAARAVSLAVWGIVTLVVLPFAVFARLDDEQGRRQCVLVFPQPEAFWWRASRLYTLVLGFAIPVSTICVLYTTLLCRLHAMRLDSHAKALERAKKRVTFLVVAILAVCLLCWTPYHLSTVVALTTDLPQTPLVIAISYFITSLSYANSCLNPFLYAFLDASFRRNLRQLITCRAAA

[3] = biological target: Melanin-concentrating hormone receptor 1 (Homo sapiens, UniProt Q99705); assay: Late-stage fluorescence-based counterscreen for antagonists of the G-protein coupled receptor 7 (GPR7): cell-based dose response assay to identify antagonists of the melanin-concentrating hormone receptor 1 (MCHR1) Set 5.; type: functional
Melanin-concentrating hormone receptor 1, sequence (Q99705 whole entry): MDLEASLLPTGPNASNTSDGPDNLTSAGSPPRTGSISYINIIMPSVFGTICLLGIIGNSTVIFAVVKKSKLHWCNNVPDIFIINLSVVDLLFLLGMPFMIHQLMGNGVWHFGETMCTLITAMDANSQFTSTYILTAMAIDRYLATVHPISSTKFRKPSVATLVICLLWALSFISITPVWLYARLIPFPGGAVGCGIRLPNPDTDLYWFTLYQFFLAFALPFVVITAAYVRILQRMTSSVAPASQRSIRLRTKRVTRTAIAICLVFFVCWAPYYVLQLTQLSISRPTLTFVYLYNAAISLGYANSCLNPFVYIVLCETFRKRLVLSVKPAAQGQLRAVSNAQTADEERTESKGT

Beta-lactamase [4] = biological target: Beta-lactamase (Salmonella choleraesuis (strain SC-B67), UniProt Q5J463); assay: Epi-absorbance-based counterscreen for selective VIM-2 inhibitors: dose response biochemical high throughput screening assay to identify inhibitors of TEM-1 serine-beta-lactamase.
Beta-lactamase (Salmonella choleraesuis (strain SC-B67), UniProt Q5J463), sequence (Q5J463 whole entry): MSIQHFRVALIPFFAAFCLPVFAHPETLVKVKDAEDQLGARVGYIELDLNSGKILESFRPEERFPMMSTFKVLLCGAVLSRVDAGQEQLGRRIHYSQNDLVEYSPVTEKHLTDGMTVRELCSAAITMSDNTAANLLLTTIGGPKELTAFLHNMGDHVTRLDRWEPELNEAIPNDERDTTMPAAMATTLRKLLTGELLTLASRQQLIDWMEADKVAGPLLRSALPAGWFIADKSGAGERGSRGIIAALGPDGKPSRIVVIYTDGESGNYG

Beta-lactamase [5] = biological target: T2, Beta-lactamase (Pseudomonas aeruginosa, UniProt Q79MP6); assay: IMP-1 metallo-beta-lactamase inhibitors, dose response, selectivity assay for VIM-2 inhibitor project, biochemical, epi-absorbance (AID 1920)
T2 sequence (Q79MP6 whole entry): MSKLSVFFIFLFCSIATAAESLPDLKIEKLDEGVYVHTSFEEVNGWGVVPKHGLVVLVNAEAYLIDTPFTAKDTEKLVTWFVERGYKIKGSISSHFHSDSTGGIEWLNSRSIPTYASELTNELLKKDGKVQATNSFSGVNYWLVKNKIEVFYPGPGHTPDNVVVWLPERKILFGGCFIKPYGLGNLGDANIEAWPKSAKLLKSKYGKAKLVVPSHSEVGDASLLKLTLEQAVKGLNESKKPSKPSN

Beta-lactamase [6] = biological target: T2, Beta-lactamase; assay: […] counterscreen for selective VIM-2 inhibitors: dose response biochemical high throughput screening assay to identify inhibitors of IMP-1 metallo-beta-lactamase.
[7] = biological target: T3, High affinity choline transporter 1 (Homo sapiens, UniProt Q9GZV3); assay: inhibitors of CHT choline uptake, dose response, cell-based, 3H-choline uptake, CHT LV-AA trafficking mutant, CRC (AID 602208); type: functional
T3 sequence (Q9GZV3 whole entry): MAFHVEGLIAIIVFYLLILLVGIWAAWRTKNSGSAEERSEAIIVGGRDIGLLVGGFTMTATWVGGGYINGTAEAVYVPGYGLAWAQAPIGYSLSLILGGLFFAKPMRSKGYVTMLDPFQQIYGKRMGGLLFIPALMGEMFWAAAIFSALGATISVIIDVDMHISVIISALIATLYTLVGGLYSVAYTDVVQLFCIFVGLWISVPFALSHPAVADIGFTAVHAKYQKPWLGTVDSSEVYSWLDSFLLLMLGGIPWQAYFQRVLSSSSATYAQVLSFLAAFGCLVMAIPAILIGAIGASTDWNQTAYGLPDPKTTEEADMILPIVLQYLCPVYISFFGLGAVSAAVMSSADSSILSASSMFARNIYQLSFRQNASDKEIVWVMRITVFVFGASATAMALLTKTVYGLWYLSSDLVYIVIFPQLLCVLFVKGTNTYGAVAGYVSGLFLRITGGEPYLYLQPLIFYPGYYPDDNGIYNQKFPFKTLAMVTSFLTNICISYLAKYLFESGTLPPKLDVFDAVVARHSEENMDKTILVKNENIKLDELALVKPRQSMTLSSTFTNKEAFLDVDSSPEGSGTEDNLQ

[8] = biological target: T3, High affinity choline transporter 1; assay: CHT inhibitors, dose response, cell-based, 10-point CRC, membrane potential dye (AID 588401); type: functional;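 further: membrane potential dye fluorescence of choline-evoked depolarization via CHT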
[9] = biological target: T3, High affinity choline transporter 1; assay: CHT inhibitors, dose response, cell-based, 5-point CRC, membrane potential dye (AID 504840); type: functional
[10] = ARNT/TACC3 interaction disruptors, potency, confirmation, biochemical, AlphaScreen, cherry-picked samples (AID 651703); type: functional, Homo sapiens;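 further: His-tagged ARNT PAS-B domain paired with GST-TACC3 E629A dimer coactivator fragment; potency of inhibitors that break up the complex and lower AlphaScreen signal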
[11] = biological target: T4, ATP-dependent translocase ABCB1 (Homo sapiens, UniProt P08183); assay: ABCG2 efflux pump inhibitor potency, dose response, Ig-MXP3 cells, JC-1, flow cytometry, set 2 (AID 504566); type: functional; conditions: read-out: EC50_MICROM_;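 further: flow cytometry median green fluorescence of retained JC-1 dye; potency of efflux pump inhibition measured as rising substrate retention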
T4 sequence (P08183 whole entry): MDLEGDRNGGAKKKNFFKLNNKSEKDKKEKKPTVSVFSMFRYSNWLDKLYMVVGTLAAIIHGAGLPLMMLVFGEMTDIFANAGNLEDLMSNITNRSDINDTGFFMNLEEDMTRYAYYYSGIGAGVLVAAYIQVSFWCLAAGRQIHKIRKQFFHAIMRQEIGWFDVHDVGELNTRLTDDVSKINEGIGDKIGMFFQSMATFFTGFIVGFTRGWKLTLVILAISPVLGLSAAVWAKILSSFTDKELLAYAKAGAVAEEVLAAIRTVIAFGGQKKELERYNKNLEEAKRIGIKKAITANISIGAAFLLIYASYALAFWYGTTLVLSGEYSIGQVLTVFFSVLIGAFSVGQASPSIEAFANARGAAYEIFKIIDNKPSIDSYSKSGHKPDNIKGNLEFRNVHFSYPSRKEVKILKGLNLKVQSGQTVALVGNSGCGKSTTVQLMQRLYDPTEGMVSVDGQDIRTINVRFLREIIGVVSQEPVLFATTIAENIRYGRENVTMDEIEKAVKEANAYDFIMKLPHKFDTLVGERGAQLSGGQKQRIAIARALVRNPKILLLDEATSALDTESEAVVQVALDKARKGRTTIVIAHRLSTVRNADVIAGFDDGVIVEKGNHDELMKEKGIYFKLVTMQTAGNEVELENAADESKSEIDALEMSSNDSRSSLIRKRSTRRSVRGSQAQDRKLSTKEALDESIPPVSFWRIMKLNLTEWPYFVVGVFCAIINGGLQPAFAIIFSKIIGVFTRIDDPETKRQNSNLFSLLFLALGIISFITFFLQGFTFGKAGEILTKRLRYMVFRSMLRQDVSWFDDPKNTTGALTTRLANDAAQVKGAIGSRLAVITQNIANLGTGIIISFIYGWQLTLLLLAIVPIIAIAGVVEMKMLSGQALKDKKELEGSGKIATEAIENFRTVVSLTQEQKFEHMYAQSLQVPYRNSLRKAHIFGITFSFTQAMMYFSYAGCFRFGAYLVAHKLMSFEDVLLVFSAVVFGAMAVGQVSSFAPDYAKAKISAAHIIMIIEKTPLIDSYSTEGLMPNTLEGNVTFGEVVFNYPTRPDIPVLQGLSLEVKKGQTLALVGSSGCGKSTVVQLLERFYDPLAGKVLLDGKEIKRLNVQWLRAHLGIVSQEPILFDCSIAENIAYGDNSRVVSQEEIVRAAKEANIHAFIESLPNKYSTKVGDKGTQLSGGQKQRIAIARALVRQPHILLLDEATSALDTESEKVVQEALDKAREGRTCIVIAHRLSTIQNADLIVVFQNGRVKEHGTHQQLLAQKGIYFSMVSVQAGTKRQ

[12] = biological target: T4, ATP-dependent translocase ABCB1; assay: ABCB1 efflux inhibitor potency, dose response, Jurkat-DNR cells, JC-1, flow cytometry, set 2 (AID 504569); type: functional; conditions: read-out: EC50_MICROM_;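 further: potency of pump inhibitors that raise cellular JC-1 green fluorescence up to the nicardipine level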
[13] = biological target: T5, Calpain-2 catalytic subunit (Sus scrofa, UniProt P43367); assay: pig calpain II inhibitor potency, dose response, biochemical, fluorogenic peptide substrate (AID 1420); type: functional
T5 sequence (P43367 whole entry): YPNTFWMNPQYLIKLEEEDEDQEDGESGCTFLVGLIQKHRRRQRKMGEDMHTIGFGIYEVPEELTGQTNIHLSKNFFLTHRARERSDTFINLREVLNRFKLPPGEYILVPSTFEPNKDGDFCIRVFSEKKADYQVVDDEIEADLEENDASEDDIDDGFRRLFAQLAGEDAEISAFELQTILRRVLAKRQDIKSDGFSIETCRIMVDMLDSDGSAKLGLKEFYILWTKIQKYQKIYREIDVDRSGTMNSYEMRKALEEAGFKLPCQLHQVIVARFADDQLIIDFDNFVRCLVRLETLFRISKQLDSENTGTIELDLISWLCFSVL

[14] = biological target: Mitochondrial peptide methionine sulfoxide reductase (Bos taurus, UniProt P54149); type: functional;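 further: absorbance read-out, biochemical high-throughput dose-response screen for MsrA inhibitors, confirmatory; recombinant bovine MsrA coupled to E. coli TrxB with NADPH and selenocystamine; potency is for inhibitors of MsrA activity on DMSO substrate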
Mitochondrial peptide methionine sulfoxide reductase, sequence (P54149 whole entry): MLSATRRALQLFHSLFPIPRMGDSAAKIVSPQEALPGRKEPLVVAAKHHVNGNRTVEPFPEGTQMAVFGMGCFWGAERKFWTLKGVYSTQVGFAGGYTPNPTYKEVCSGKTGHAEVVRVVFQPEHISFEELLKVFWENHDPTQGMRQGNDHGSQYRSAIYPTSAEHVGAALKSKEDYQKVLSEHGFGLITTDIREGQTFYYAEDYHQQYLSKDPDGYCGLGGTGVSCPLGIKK

DNA repair and recombination protein RAD54-like, sequence (Q92698 whole entry): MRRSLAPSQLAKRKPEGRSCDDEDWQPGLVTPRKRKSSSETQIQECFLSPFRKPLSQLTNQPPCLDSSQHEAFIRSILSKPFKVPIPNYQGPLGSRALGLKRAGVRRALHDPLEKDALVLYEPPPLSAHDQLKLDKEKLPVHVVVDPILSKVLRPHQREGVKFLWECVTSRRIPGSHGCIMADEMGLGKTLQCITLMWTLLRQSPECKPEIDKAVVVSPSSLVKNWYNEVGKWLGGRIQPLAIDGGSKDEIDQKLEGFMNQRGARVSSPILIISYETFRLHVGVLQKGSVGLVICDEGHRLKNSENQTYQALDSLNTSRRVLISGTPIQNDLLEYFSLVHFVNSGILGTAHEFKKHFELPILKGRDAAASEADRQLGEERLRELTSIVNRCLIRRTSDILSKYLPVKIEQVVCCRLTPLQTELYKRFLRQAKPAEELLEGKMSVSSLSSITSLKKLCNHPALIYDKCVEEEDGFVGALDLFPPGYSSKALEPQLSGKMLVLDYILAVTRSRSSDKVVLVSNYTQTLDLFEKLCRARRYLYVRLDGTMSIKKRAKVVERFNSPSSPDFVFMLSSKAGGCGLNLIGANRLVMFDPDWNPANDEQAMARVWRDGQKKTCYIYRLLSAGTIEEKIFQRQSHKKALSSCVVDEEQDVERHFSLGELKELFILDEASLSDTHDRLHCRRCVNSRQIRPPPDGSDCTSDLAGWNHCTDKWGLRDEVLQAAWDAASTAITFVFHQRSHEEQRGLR

## CN(C)CCN(C(=O)c1ccc2c(c1)OCCO2)c1nc2c(Cl)cccc2s1
[1]
  AC50: 55.1 µM (active)

## O=C(C1CCCCN1C1c2ccccc2CCc2ccccc21)N1CCN(c2ccc([N+](=O)[O-])cc2)CC1 (centres undefined)
[2]
  IC50: > 20 µM (inactive)
[3]
  IC50: > 20 µM (inactive)

## Cc1ccc(S(=O)(=O)n2[nH]c(=O)cc2NC(=O)c2cccs2)cc1
Beta-lactamase [4]
  IC50: > 59.6 µM (inactive)
Beta-lactamase [5]
  IC50: > 59.6 µM (inactive)
Beta-lactamase [6]
  IC50: > 59.6 µM (inactive)

## O=C(Nc1ccc(S(=O)(=O)NC2=NCCCCC2)cc1)c1ccc(Cl)cc1Cl
[7]
  IC50: 0.864 µM (active)
[8]
  IC50: 4.47 µM (active)
[9]
  IC50: 7.42 µM (active)

## NC(=O)c1[nH]cnc1N
[10]
  AC50: 90.5 µM (active)

## COc1cccc(-c2cc3nc(-c4ccccc4)cc(N4CCN(C(=O)c5ccco5)CC4)n3n2)c1
[11]
  EC50: 1.17 µM (active)
[12]
  EC50: 4.32 µM (active)

## CCOC(=O)C(C)/C(C)=N\Nc1ccc([N+](=O)[O-])cc1[N+](=O)[O-] (centres undefined)
[13]
  IC50: > 50 µM (not active)
[14]
  IC50: 155 µM (inactive)
